In paper PMC6718453 (Frontiers in Aging Neuroscience, 2019):
Converted amounts (≈) assume the structure as drawn.

Target: acetylcholinesterase (AChE)

Compound: O=C(/C=C/C=C/c1ccc2c(c1)OCO2)N1CCCCC1 [piperine]
- IC50 ± SEM: 76.6 ± 0.08 µg/mL (≈ 268 µM)
